# Test results: EP1487791B1, “A NOVEL ANTIFUNGAL MOLECULE 2-(3,4-DIMETHYL-2,5-DIHYDRO-1H-PYRROL-2-YL)- METHYLETHYL PENTANOATE” (priority 2002, dated 2003)
# How the values were obtained:
# Aspergillus = experiment: Disc diffusion assay, overall result for Aspergillus; type: cell-based; settings: concentration developing zone of inhibition of 6.0-mm diameter
# Protocol: (§1) Pathogenic strains of fungi were obtained from the Mycology Department of Vallabhbhai Patel Chest Institute, Delhi. All the strains were grown on Sabouraud dextrose agar at 37°C. The conidia form these cultures were harvested and suspended in Sabouraud maltose broth. The number of conidia was counted using haemocytometer and their number in the suspension was adjusted to as per need of the experiment.
# The leftover residue was finally dissolved in methanol. Dried fractions were examined for their antifungal activity.
# The disc diffusion test was performed as per described in the section of details of invention. Amphotericin B 1.25 µg/disc was used in assay as positive control standard drug. Additional discs impregnated with equivalent amount of solvent were also used in the assay as negative controls (Fig: 5). […] Table 2: Antifungal activity of compound by disc diffusion method
# A. fumigatus [1] = experiment: Microbroth dilution assay; type: cell-based; design: key: +ve if medium appeared clear with out any growth of fungi; -ve if growth was there
# Protocol: as §1
# (§2) The antifungal susceptibility of the fungi to various fractions or the purified component was assayed by the microbroth, dilution method (Forthergill A.W. and McGough A.W., 1995, Clin. Microbiol. Procedure Handbook. In Vitro susceptibility Testing of Yeast, 5.15.1-5.15.15). The fungal spores were harvested from 96-h cultures and their number adjusted to 1x10^6 per ml. The Sabouraud Dextrose medium was dissolved in glass double distilled water and autoclaved at 10 psi for 15 min. 90-µl medium was added into the wells of cell culture plates. The different concentrations of the extract, fractions or the purified compound were prepared in duplicate wells and then the wells were inoculated with 10 µl of spore suspension. The plates were incubated at 37°C and examined macroscopically after 48 h for the growth of fungal mycelia. The activity was represented as -ve if growth was there and +ve if medium appeared clear with out any growth of fungi.
# (§3) The antifungal susceptibility of the fungi to the purified compound was assayed by the microbroth dilution method. The different concentrations of the purified compound ranging from 21.87 to 350 µg/ml were prepared in duplicate wells by twofold dilution method. The test was done as described above. […] Table 1: Activity of the compound against Aspergillus sp. after 48 hrs.
# A. niger = experiment: Microbroth dilution assay; type: cell-based; design: key: +ve if medium appeared clear with out any growth of fungi; -ve if growth was there
# Protocol: as §1, §2, §3
# A. fumigatus [2] = experiment: Quantification of colony forming units in organs of infected mice; type: in vivo, Balb/C mice
# Excerpt: In vivo efficacy of the compound against A. fumigatus infection was studied in the Balb/C mice of 6-8 weak of age of either sex, weighing 15-20 g each. The mice model of aspergillosis described by Dixon et al (1989), was used to study the effects of compound on in vivo infection of A. fumigatus.
# The animals were housed in the micro-barrier cages on sterile bedding and fed ad libitum water and food. The mice were divided into 6 groups and each group contained 8-10 animals. The mice were infected experimentally with A. fumigatus. Three days prior to infection with conidia, mice were injected subcutaneously with 3 doses (250.0 mg/kg/day) of cortisone acetate in 400.0 µl of PBS. On the infection day, each mouse received 2x10^7 conidia by nasal instillation of a single droplet of conidial suspension. The animals of this model developed invasive aspergillosis and all the infected animals died within 4-6 days.
# A. fumigatus (190/96) isolate was grown on Sabouraud dextrose agar plates at 37 °C for 4 days. The conidia were collected from the culture plates using PBS (pH 7.2) containing 0.05% Tween 80 (Sigma Chemicals) and the suspension was filtered through sterile glass wool. The conidia were pelleted by centrifugation at 2000 rpm and re-suspended in PBS, pH 7.2. The number of conidia, was counted and adjusted to 1x10^8 conidia/ml. The viability of the conidia was determined by plating the dilutions of suspensions on Sabouraud dextrose agar.
# The dosing of the animals (cortisone treated and challenged) with compound in 6 different groups was initiated within 30 min after challenge with A. fumigatus conidia. Group I: The mice were treated orally with 7 doses of 25.0 mg/kg/day of the compound. Group II: The animals infected with A. fumigatus conidia were given 50.0 mg/kg/day of the compound for 7 days orally. Group III: The animals in this group were given 7 oral doses of 100.0 mg/kg/day of the compound. Group IV: In this group of animals, 7 oral doses of the compound (200.0 mg/kg/day) were given. Group V: The animals of this group were treated with 7 doses of 400.0 mg/kg/day orally over a period of 7 days. Group VI: The animals of this group acted as control and were treated orally with 7 doses of 400 µl PBS containing solvent.
# (§4) The mice were kept under constant watch and those getting moribund, dying or survived up to 10 days were sacrificed. The autopsy was performed on the mice who had died to remove their organs for quantification of colony forming units (CFU). The lungs, livers and kidneys of the mice were removed aseptically, placed in sterile PBS (pH 7.2) and homogenized with teflon pestle mortar. The CFU in the animals were determined by plating 10 fold dilutions of organ homogenates on Sabouraud dextrose agar containing 0.05% triton X-100. The triton X-100 limited the colony size and thus greatly facilitated colony counting (Frosco, 1992). After an incubation for 48 h at 37 °C, colonies were counted and results were expressed as CFU per organ. The survival time and CFU indicating the fungal burden in various organs were considered
# as §4, with “The survival time and CFU indicating the fungal burden in various organs were considered” left out
# [3] = Group I, 25.0 mg/kg body weight oral
# [4] = Group II, 50.0 mg/kg body weight oral
# [5] = Group III, 100.0 mg/kg body weight oral
# [6] = Group IV, 200.0 mg/kg body weight oral
# [7] = Group V, 400.0 mg/kg body weight oral
smiles,measurement,setting,value
"CCCCC(=O)OC(C)CC1NCC(C)=C1C (stereo not shown) [PC-1, 2-(3,4-dimethyl-2,5-dihydro-1H-pyrrol-2-yl)-1-methylethyl pentanoate]",MIC,Aspergillus,5 µg/disc
same,MIC,Aspergillus; listed as novel antifungal lead molecule,5.0 µg/disc
same,Activity against Aspergillus sp. after 48 hrs,A. fumigatus [1]; 21.87 µg/ml,-
same,Activity against Aspergillus sp. after 48 hrs,A. fumigatus [1]; 43.75 µg/ml,-
same,Activity against Aspergillus sp. after 48 hrs,A. fumigatus [1]; 87.50 µg/ml,+
same,Activity against Aspergillus sp. after 48 hrs,A. fumigatus [1]; 175.00 µg/ml,+
same,Activity against Aspergillus sp. after 48 hrs,A. fumigatus [1]; 350.00 µg/ml,+
same,Activity against Aspergillus sp. after 48 hrs,A. niger; 21.87 µg/ml,-
same,Activity against Aspergillus sp. after 48 hrs,A. niger; 43.75 µg/ml,-
same,Activity against Aspergillus sp. after 48 hrs,A. niger; 87.50 µg/ml,+
same,Activity against Aspergillus sp. after 48 hrs,A. niger; 175.00 µg/ml,+
same,Activity against Aspergillus sp. after 48 hrs,A. niger; 350.00 µg/ml,+
same,colony counts as compared to controls,"A. fumigatus [2]; 400 mg/kg body weight, p < 0.001",reduced the colony counts significantly
same,number of CFUs in the kidneys,A. fumigatus [2]; 100.0 to 400.0 mg/kg body weight,significant reduction
same,CFU/Organs (Mean+ SD) Kidney,A. fumigatus [2]; [3],1402.5+350.09 CFU/Organs
same,CFU/Organs (Mean+ SD) Liver,A. fumigatus [2]; [3],255.0+72.45 CFU/Organs
same,CFU/Organs (Mean+ SD) Lung,A. fumigatus [2]; [3],907.5+246.09 CFU/Organs
same,CFU/Organs (Mean+ SD) Kidney,A. fumigatus [2]; [4],1040.5+441.78 CFU/Organs
same,CFU/Organs (Mean+ SD) Liver,A. fumigatus [2]; [4],290.6+135.58 CFU/Organs
same,CFU/Organs (Mean+ SD) Lung,A. fumigatus [2]; [4],900.0+230.29 CFU/Organs
same,CFU/Organs (Mean+ SD) Kidney,A. fumigatus [2]; [5],733.3+394.69 CFU/Organs
same,CFU/Organs (Mean+ SD) Liver,A. fumigatus [2]; [5],216.7+108.97 CFU/Organs
same,CFU/Organs (Mean+ SD) Lung,A. fumigatus [2]; [5],650.1+171.85 CFU/Organs
same,CFU/Organs (Mean+ SD) Kidney,A. fumigatus [2]; [6],683.3+352.67 CFU/Organs
same,CFU/Organs (Mean+ SD) Liver,A. fumigatus [2]; [6],225.0+91.85 CFU/Organs
same,CFU/Organs (Mean+ SD) Lung,A. fumigatus [2]; [6],525.0+251.56 CFU/Organs
same,CFU/Organs (Mean+ SD) Kidney,A. fumigatus [2]; [7],225.0+157.39 CFU/Organs
same,CFU/Organs (Mean+ SD) Liver,A. fumigatus [2]; [7],165.0+117.84 CFU/Organs
same,CFU/Organs (Mean+ SD) Lung,A. fumigatus [2]; [7],180.0+127.75 CFU/Organs
same,effect on the CFUs in the lung tissue,A. fumigatus [2]; doses of 25.0 and 50.0 mg/kg body weight,did not have any effect
same,effect of the compound on CFUs in liver,A. fumigatus [2]; liver,very less effect
